According to patent US20190151312A1, “HEPARAN SULFATE BIOSYNTHESIS INHIBITORS FOR THE TREATMENT OF DISEASES” (BioMarin Pharmaceutical Inc., priority 2014, published 2019):

Test system: GM01896 cells (MPS II dermal fibroblasts)
Test: Assay 1: MPS cellular assay, MPS II (heparan sulfate disaccharide biomarkers by LC-MS)
Type: cell-based, human
Settings: Homo sapiens, Fibroblast, Assay 1 for MPS II, heparan sulfate disaccharide biomarkers (I2a4, I2a6, I2S0 and/or I2S6), read-out: IC50 Range
Method in brief: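 Heparan sulfate disaccharide biomarkers quantified by LC-MS after heparinase I/II/III digestion and isotopic aniline labelling, using GM01896 MPS II fibroblasts exposed to compound (at or below 30 μM, 4-21 days). Values given as IC50 by curve fitting; cell viability checked with alamar blue or ATP.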

Structure (SMILES) | IC50
Cn1nc(NCCCCN2CCCC2)c2ccc(-c3cc(Nc4ccc(Cl)cc4)nc(N4CCOCC4)n3)cc21 [(4-chlorophenyl)(6-{1-methyl-3-[(4-pyrrolidinylbutyl)amino](1H-indazol-6-yl)}-2-morpholin-4-ylpyrimidin-4-yl)amine] | 500 to 1000 nM
Cc1nn(C)c2cc(-c3cc(Nc4ccc(-c5nccn5C)cc4)nc(N4CCOCC4)n3)ccc12 [[6-(1,3-dimethyl(1H-indazol-6-yl))-2-morpholin-4-ylpyrimidin-4-yl][4-(1-methylimidazol-2-yl)phenyl]amine] | < 500 nM
Clc1ccc(Nc2cc(-c3ccc4c(c3)ncn4CCN3CCCC3)nc(N3CCOCC3)n2)cc1 [(4-chlorophenyl){2-morpholin-4-yl-6-[1-(2-pyrrolidinylethyl)benzimidazol-5-yl]pyrimidin-4-yl}amine] | 1000 to 5000 nM
CNC(=O)c1ccc(Nc2cc(-c3ccc4cnn(C)c4c3)nc(N3CCOCC3)n2)cc1 [N-methyl(4-{[6-(1-methyl(1H-indazol-6-yl))-2-morpholin-4-ylpyrimidin-4-yl]amino}phenyl)carboxamide] | < 500 nM
CC(=O)Nc1ccc(Nc2cc(-c3ccc4ncn(C)c4c3)nc(N3CCOCC3)n2)cc1 [N-(4-{[6-(1-methylbenzimidazol-6-yl)-2-morpholin-4-ylpyrimidin-4-yl]amino}phenyl)acetamide] | 500 to 1000 nM
CN(C)CCn1ncc2ccc(-c3cc(Nc4ccc(Cl)cc4)nc(N4CCOCC4)n3)cc21 [[2-(6-{6-[(4-chlorophenyl)amino]-2-morpholin-4-ylpyrimidin-4-yl}(1H-indazolyl))ethyl]dimethylamine] | 500 to 1000 nM
Clc1ccc(Nc2cc(-c3ccc4c(c3)ncn4CCCN3CCOCC3)nc(N3CCOCC3)n2)cc1 [(4-chlorophenyl){2-morpholin-4-yl-6-[1-(3-morpholin-4-ylpropyl)benzimidazol-5-yl]pyrimidin-4-yl}amine] | 1000 to 5000 nM
Cn1ncc2ccc(-c3cc(Nc4ccc5c(c4)nnn5C)nc(N4CCOCC4)n3)cc21 [[6-(1-methyl(1H-indazol-6-yl))-2-morpholin-4-ylpyrimidin-4-yl](1-methylbenzotriazol-5-yl)amine] | 1000 to 5000 nM
Cc1nn(C)c2cc(-c3cc(Nc4ccc(Cl)cc4)nc(N4CCOCC4)n3)ccc12 [[6-(1,3-dimethyl(1H-indazol-6-yl))-2-morpholin-4-ylpyrimidin-4-yl](4-chlorophenyl)amine] | 500 to 1000 nM
Cc1nn(C)c2cc(-c3cc(Nc4ccc(-c5ncc(C(F)(F)F)[nH]5)cc4)nc(N4CCOCC4)n3)ccc12 [[6-(1,3-dimethyl(1H-indazol-6-yl))-2-morpholin-4-ylpyrimidin-4-yl]{4-[5-(trifluoromethyl)imidazol-2-yl]phenyl}amine] | 500 to 1000 nM
Cn1cnc2ccc(-c3cc(Nc4ccc(C(N)=O)cc4)nc(N4CCOCC4)n3)cc21 [4-{[6-(1-methylbenzimidazol-6-yl)-2-morpholin-4-ylpyrimidin-4-yl]amino}benzamide] | 500 to 1000 nM
CNC(=O)c1ccc(Nc2cc(-c3ccc4c(cnn4C4CC4)c3)nc(N3CCOCC3)n2)cc1 [(4-{[6-(1-cyclopropyl(1H-indazol-5-yl))-2-morpholin-4-ylpyrimidin-4-yl]amino}phenyl)-N-methylcarboxamide] | 1000 to 5000 nM
Cn1ncc2ccc(-c3cc(Nc4ccc(C(=O)NC5(C)CC5)cc4)nc(N4CCOCC4)n3)cc21 [(4-{[6-(1-methyl(1H-indazol-6-yl))-2-morpholin-4-ylpyrimidin-4-yl]amino}phenyl)-N-(methylcyclopropyl)carboxamide] | 1000 to 5000 nM
Cc1nn(C)c2cc(-c3cc(Nc4ccc(-c5ccn(C)n5)cc4)nc(N4CCOCC4)n3)ccc12 [[6-(1,3-dimethyl(1H-indazol-6-yl))-2-morpholin-4-ylpyrimidin-4-yl][4-(1-methylpyrazol-3-yl)phenyl]amine] | 1000 to 5000 nM
Cc1nc2ccc(-c3cc(Nc4ccc(Cl)cc4)nc(N4CCOCC4)n3)cc2n1C [[6-(1,2-dimethylbenzimidazol-6-yl)-2-morpholin-4-ylpyrimidin-4-yl](4-chlorophenyl)amine] | 500 to 1000 nM
